Seven compounds from patent publication US20260226010A1, “HETEROCYCLIC COMPOUNDS AS PI3Ka INHIBITORS” (Pikavation Therapeutics, Inc., priority 2023, published 2026) can be followed below.

SMILES strings stand for the structures. pIC50: −log10 of the molar value.

This test has as its system T47D (PIK3CA H1047R) cells. Briefly: pS473 AKT assay. The test is classed as cell-based. To be noted: Homo sapiens; pSer473 AKT in T47D (PIK3CA H1047R) cells, 2 h treatment, DMEM with 2.5% FBS; read-out: T47D_IC50. On the procedure: T47D (PIK3CA H1047R) cells were cultured using 10-cm petri dishes with recommended medium plus 10% fetal bovine serum. One day before the assay, cells were seeded in 96-well plates. After overnight incubation, the medium was changed to DMEM with 2.5% fetal bovine serum (FBS) and the cells were treated with different concentrations of the compounds for 2 h. Cells were then fixed using 4% paraformaldehyde at room temperature for 20 min. Aspirate 4% paraformaldehyde, and wash cells using 1× regular phosphate buffered saline 3 times, 5 min each. Aspirate any residual phosphate buffered saline and block cells using 10% goat serum containing 1% bovine serum albumin and 0.3% Triton X-100 at room temperature for 1 h. Without any additional washing, primary antibodies (rabbit anti-pSer473 AKT) were diluted using blocking buffer and added at a final volume of 50 microliter per well. Keep assay plates with primary antibodies overnight at 4° C. Wash cells using 1× regular phosphate buffered saline 3 times, 5 min each. After the final wash, incubate cells with horseradish peroxidase-conjugated secondary antibodies (goat Anti-rabbit IgG) diluted using the same blocking buffer at room temperature for 1 h. Wash cells thoroughly using 1× regular phosphate buffered saline 3 times, 5 min each. Aspirate any residual phosphate buffered saline. Add Super-Signal ELISA Pico Chemiluminescent Substrate at a final volume of 100 microliter per well. Read plates on i3× Multi-Mode Microplate Reader and calculate IC50 values using GraphPad Prism software.
As for `Cc1cc2c(c(C(C)Nc3ccccc3C(=O)O)c1)CC1(CCc3ccccc31)N(C)C2=O` (stereo not shown) [Example 1, 2-[1-(2,7-Dimethyl-1-oxo-spiro[4H-isoquinoline-3,1′-indane]-5yl)ethylamino]benzoic acid], the pIC50 was more than 6.00.
For the compound `Cc1cc2c(c(C(C)Nc3ccc(C)nc3C(=O)O)c1)CC1(CCc3ccccc31)N(C)C2=O` (stereo not shown) [Example 2, 3-[1-(2,7-Dimethyl-1-oxo-spiro[4H-isoquinoline-3,1′-indane]-5-yl)ethylamino]-6-methyl-pyridine-2-carboxylic acid], the pIC50 is more than 6.00.
As for `Cc1cc2c(c(C(C)Nc3ccc(Cl)nc3C(=O)O)c1)CC1(CCc3ccccc31)N(C)C2=O` (stereo not shown) [Example 3, 6-Chloro-3-[1-(2,7-dimethyl-1-oxo-spiro[4H-isoquinoline-3,1′-indane]-5-yl)ethylamino]pyridine-2-carboxylic acid], the pIC50 is more than 6.00.
For `Cc1cc2c(c(C(C)Nc3ccccc3C(=O)O)c1)CC1(Cc3ccccc3C1)N(C)C2=O` (stereo not shown) [Example 4, 2-[1-(2,7-Dimethyl-1-oxo-spiro[4H-isoquinoline-3,2′-indane]-5-yl)ethylamino]benzoic acid], the pIC50 is 5.30 to 6.00.
On to `Cc1cc2c(c(C(C)Nc3ccc(C)nc3C(=O)O)c1)CC1(Cc3ccccc3C1)N(C)C2=O` (stereo not shown) [Example 5, 3-((1-(2′,7′-Dimethyl-1′-oxo-1,1′,3,4′-tetrahydro-2′H-spiro[indene-2,3′-isoquinolin]-5′-yl)ethyl)amino)-6-methylpicolinic acid], for which the pIC50 is 5.30 to 6.00.
For `Cc1cc2c(c(C(C)Nc3ccc(Cl)nc3-c3cnn(C)c3)c1)CC1(CCc3ccccc31)N(C)C2=O` (stereo not shown) [Example 6, 5-[1-[[6-Chloro-2-(1-methylpyrazol-4-yl)-3-pyridyl]amino]ethyl]-2,7-dimethyl-spiro[4H-isoquinoline-3,1′-indane]-1-one], the pIC50 is more than 6.00.
Consider `Cc1cc2c(c(C(C)Nc3ccc(Cl)nc3-c3ccncc3F)c1)CC1(CCc3ccccc31)N(C)C2=O` (stereo not shown) [Example 7, 5-[1-[[6-Chloro-2-(3-fluoro-4-pyridyl)-3-pyridyl]amino]ethyl]-2,7-dimethyl-spiro[4H-isoquinoline-3,1′-indane]-1-one], for which the pIC50 was more than 6.00.
